# Experimental data reported in PMC9209747 (Neuro-oncology Advances, 2022).
# Read-outs that look alike come from different tables or passages of the source. Marks after values point to notes of the source that are not given here.
# Assays:
# [1] = Experimental: Patients received focal CRT at the current standard dose of 54 Gy in 180 cGy fractions, Monday through Friday for a total of 30 fractions over 6 weeks, with a rest period on Saturday and Sunday of each week.
# Adverse events (AE) were graded according to the Common Terminology Criteria for Adverse Events version 5.0.
# A rolling six design was used to estimate the MTD or RP2D. Overall survival (OS) was estimated using the Kaplan Meier method including 95% confidence intervals (CI). OS was calculated as the time (in months) from enrollment until date of death. […] Progressive disease was based on central imaging review. […] OS is compared with an historical cohort of patients which cumulatively includes DIPG patients from ACNS0126[23] and ACNS0222[22] using a log-rank test. PK parameters were analyzed with summary statistics, including means, and standard deviations.
# clinical = details: human, in vivo
# Experimental: Pharmacokinetic parameters were calculated using noncompartmental methods[20] using Phoenix® WinNonlin® Version 8.1 (WinNonlin version 8.1.03530, Pheonix 64; Pharsight Corporation, Mountain View, CA). […] Oral steady-state clearance (ClSS/F) was calculated using the equation, ClSS = Dose/AUCτ.
smiles,measurement,setting,value
C=CCn1c(=O)c2cnc(Nc3ccc(N4CCN(C)CC4)cc3)nc2n1-c1cccc(C(C)(C)O)n1 [adavosertib],"Lung infection, patient-courses with grade >= 3",[1]; all dose levels (N = 89),1 (1) # (%)
same,"Lung infection, patient-courses with grade >= 3","[1]; dose level 4 (N = 15), 95 mg/m^2",1 (6) # (%)
same,"Alanine aminotransferase increased, patient-courses with grade >= 3","[1]; human, in vivo, 6 weeks",1 (1) # (%)
same,"Anemia, patient-courses with grade >= 3","[1]; human, in vivo, 6 weeks",3 (3) # (%)
same,"Dizziness, patient-courses with grade >= 3","[1]; human, in vivo, 6 weeks",1 (1) # (%)
same,"Febrile neutropenia, patient-courses with grade >= 3","[1]; human, in vivo, 6 weeks",1 (1) # (%)
same,"Headache, patient-courses with grade >= 3","[1]; human, in vivo, 6 weeks",1 (1) # (%)
same,"Hypocalcemia, patient-courses with grade >= 3","[1]; human, in vivo, 6 weeks",1 (1) # (%)
same,"Lymphocyte count decreased, patient-courses with grade >= 3","[1]; human, in vivo, 6 weeks",16 (18) # (%)
same,"Neutrophil count decreased, patient-courses with grade >= 3","[1]; human, in vivo, 6 weeks",4 (4) # (%)
same,"Weight gain, patient-courses with grade >= 3","[1]; human, in vivo, 6 weeks",2 (2) # (%)
same,"White blood cell decreased, patient-courses with grade >= 3","[1]; human, in vivo, 6 weeks",5 (6) # (%)
same,Recommended phase 2 dose (RP2D),"[1]; human, in vivo, po, 6 weeks",200 mg/m^2/d
same,Maximum tolerated dose (MTD),[1]; seven dose levels up to 200 mg/m^2/day with CRT,No MTD was reached
same,Dose dependence of Cmax and AUC,clinical,appeared to increase in proportion to dose
same,Median BSA-adjusted plasma clearance,clinical,45.2 L/hr/m^2
same,Median half-life,clinical,4.4 h
same,half-life,clinical,4.4 h
same,AUC,clinical; 50 mg/m2,2.45 ± 1.04 µM·h
same,AUC0-8h,clinical; 50 mg/m2,1.42 ± 0.438 µM·h
same,AUC(0-inf),clinical; 50 mg/m2,2.22 ± 0.8 µM·h
same,CLss (steady-state clearance),clinical; 50 mg/m2,47.9 ± 23.2 L/hr/m^2
same,Cmax,clinical; 50 mg/m2,356 ± 109 nM
same,Tmax,clinical; 50 mg/m2,1.9 ± 0.9 h
same,half-life,clinical; 50 mg/m2,4.2 ± 1.3 h
same,AUC(0-t),"clinical; 50 mg/m2, AUC0-8h",1.65 ± 0.654 µM·h
same,Cmax,"clinical; 50 mg/m2, Cmax",422 ± 170 nM
same,Tmax,"clinical; 50 mg/m2, Tmax",1.9 ± 0.9 h
same,AUC,clinical; 95 mg/m2,5.74 ± 2.72 µM·h
same,AUC0-8h,clinical; 95 mg/m2,3.362 ± 0.85 µM·h
same,AUC(0-inf),clinical; 95 mg/m2,6.03 ± 1.98 µM·h
same,CLss (steady-state clearance),clinical; 95 mg/m2,39.2 ± 17.2 L/hr/m^2
same,Cmax,clinical; 95 mg/m2,869 ± 235 nM
same,Tmax,clinical; 95 mg/m2,1.8 ± 0.4 h
same,half-life,clinical; 95 mg/m2,4.5 ± 1.2 h
same,AUC(0-t),"clinical; 95 mg/m2, AUC0-8h",4.01 ± 1.81 µM·h
same,Cmax,"clinical; 95 mg/m2, Cmax",933 ± 351 nM
same,Tmax,"clinical; 95 mg/m2, Tmax",1.9 ± 0.5 h
same,AUC,clinical; 130 mg/m2,7.21 ± 2.76 µM·h
same,AUC0-8h,clinical; 130 mg/m2,3.731 ± 1.583 µM·h
same,AUC(0-inf),clinical; 130 mg/m2,5.87 ± 2.26 µM·h
same,CLss (steady-state clearance),clinical; 130 mg/m2,41.6 ± 19.8 L/hr/m^2
same,Cmax,clinical; 130 mg/m2,821 ± 410 nM
same,half-life,clinical; 130 mg/m2,4.1 ± 0.5 h
same,AUC(0-t),"clinical; 130 mg/m2, AUC0-8h",4.48 ± 1.77 µM·h
same,Cmax,"clinical; 130 mg/m2, Cmax",994 ± 467 nM
same,Tmax,"clinical; 130 mg/m2, Tmax",2.3 ± 0.8 h
same,AUC,clinical; 160 mg/m2,12.8 ± 1.8 µM·h
same,AUC0-8h,clinical; 160 mg/m2,6.689 ± 2.738 µM·h
same,AUC(0-inf),clinical; 160 mg/m2,11.4 ± 3.73 µM·h
same,CLss (steady-state clearance),clinical; 160 mg/m2,25.6 ± 3.3 (n* = 4) L/hr/m^2
same,Cmax,clinical; 160 mg/m2,1270 ± 705 nM
same,half-life,clinical; 160 mg/m2,4.8 ± 1 h
